The values that follow come from US20100178299A1, “METHODS AND COMPOSITIONS FOR IMPROVING IMMUNE RESPONSES” (Northeastern University, priority 2007, published 2010).

“Also recorded” adds a separate entry of the source.

The test system of assay [1] is MCA 205 fibrosarcoma lung metastases. Kind of assay: Adoptive immunotherapy of MCA 205 fibrosarcoma lung metastases. The class given is in vivo, mice. To be noted: KW6002 20 mg/kg daily i.p. with adoptive transfer of 12.5×10^6 anti-tumor T cells; day 21. On the procedure:
Here, we observed the effect of adoptively transferred anti-tumor T cells on the weakly immunogenic MCA 205 fibrosarcoma lung metastases if treatment included A2AR antagonist KW6002. It is shown that treatment with this long-lived A2AR antagonist may strongly enhance the efficacy of adoptive immunotherapy (FIG. 7).
CTLs were prepared from tumor draining lymph nodes isolated from lymph nodes 12 days after s.c. inoculation with 1.5×105 MCA205 fibrosarcoma. After 2 days anti-CD3 activation and additional 3 days IL-2 expansion, these T cells were injected into mice with 10 days established pulmonary metastases (3×10^5 MCA205 cells). After the adoptive transfer, the mice received daily i.p. injection of 20 mg/kg of KW6002. The pulmonary metastases were examined by day 21 after tumor inoculation. (Please note that tumors appear as white nodules upon the ink injected lungs.)

Another assay concerns B16 melanoma. In words: B16 melanoma growth and survival in mice given GM-CSF-transfected B16 tumor vaccine. The class given is in vivo, C57BL/6 mice. To be noted: for survival of mice: log-rank. The source says:
Tumor melanoma cells are transfected with GM-CSF then irradiated or treated with anti-proliferative drug, mitomycin C, in order to prevent the proliferation of these tumor vaccine cells in a patient to be injected with this vaccine. […] Hodi F S, Dranoff G. Combinatorial cancer immunotherapy. Adv Immunol. 2006; 90:341-68
B16 melanoma (1×10^6 cells, s.c.) were inoculated to syngeneic C57BL/6 mice. All the mice received tumor vaccination, GM-CSF transfectant of B16 cells (1×10^6 cells, s.c.), for 3 times in every week starting from day 2. On the same day, treatment with KW6002 (2 mg/kg, daily s.c. injection) and/or 60% oxygen was started until the end of the experiment. B16 tumor growth was retarded by treatment with 60% oxygen and combined treatment with KW6002 (left). Perpendicular tumor diameters were measured and tumor volumes were calculated according to the formula a2×b×0.52, where a is the smaller and b is the larger tumor diameter. […] The mice were euthanized when tumor reached 2.0 cm in diameter or became ulcerated. […] The difference was statistically significant with control vs 60% O2 (p=0.033) and control vs 60% O2+KW (p=0.001). The statistics was calculated by log-rank test.

A further assay addresses T1, A2AR (Homo sapiens, UniProt P29274).
T1 construct: host or cells: cells, not specified
Kind of assay: Control assay of ex vivo serum from caffeine-treated mice on adenosine→A2AR-induced cAMP accumulation in cells. Format: cell-based. Particulars: ex vivo serum from mice given caffeine 0.1% w/v in drinking water. A general note: Cyclic AMP is a second messenger, typically raised through Gs and lowered through Gi signalling.

The subject of another assay is TNP-specific IgM. In words: TNP-KLH/CFA immunization with IFA booster, indirect ELISA of TNP-specific IgM (Example 2). Format: in vivo, C57B1/6 mice. (ELISA stands for enzyme-linked immunosorbent assay.)
Another assay has as its system RMA T lymphoma. Kind of assay: RMA T lymphoma growth, rejection and survival in mice treated with caffeine and/or 60% oxygen. The class given is in vivo, C57BL/6 mice.
The mark [2] stands for this setting: caffeine alone in drinking water (0.1% w/v), FIG. 2.

T1 sequence (P29274 whole entry): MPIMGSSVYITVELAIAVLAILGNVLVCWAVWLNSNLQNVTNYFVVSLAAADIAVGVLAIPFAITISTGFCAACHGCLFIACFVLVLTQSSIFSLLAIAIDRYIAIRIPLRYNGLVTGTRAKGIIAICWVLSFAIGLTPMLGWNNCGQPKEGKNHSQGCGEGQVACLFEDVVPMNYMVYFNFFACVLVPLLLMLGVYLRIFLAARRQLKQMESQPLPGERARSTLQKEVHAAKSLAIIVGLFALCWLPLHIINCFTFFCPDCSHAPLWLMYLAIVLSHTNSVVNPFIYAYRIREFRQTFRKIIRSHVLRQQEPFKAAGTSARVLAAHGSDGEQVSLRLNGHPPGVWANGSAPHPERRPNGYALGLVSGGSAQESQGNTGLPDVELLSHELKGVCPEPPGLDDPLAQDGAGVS

Take `CCn1c(=O)c2c(nc(/C=C/c3ccc(OC)c(OC)c3)n2C)n(CC)c1=O` [KW6002, (E)-8-(3,4-dimethoxystyryl)-1,3-diethyl-7-methylxanthine]: in assay [1], the “lung tumor nodules (pulmonary metastases)” value is recorded as “most of the tumor nodules were eliminated”. Also, in the assay on B16 melanoma (KW6002 2 mg/kg daily s.c. combined with 60% oxygen, n=8, 2 mg/kg), the B16 tumor growth entry is reported as “can significantly retard tumor growth; also recorded: retarded”. Also, the survival of mice result in the assay on B16 melanoma (KW6002 2 mg/kg daily s.c. combined with 60% oxygen, p=0.001 vs control) was “prolonged survival of mice”.

Turning to `Cn1c(=O)c2c(ncn2C)n(C)c1=O` [caffeine, 1,3,7-trimethylxanthine], the “in vivo levels of caffeine in serum versus adenosine→A2AR-induced cAMP accumulation” value at A2AR is “sufficiently high to prevent (antagonize) adenosine→A2AR-induced cAMP accumulation in cells”. The “effectiveness of immunization (TNP-specific IgM)” value with TNP-specific IgM (caffeine in drinking water added to 60% oxygen versus 60% oxygen alone, FIG. 4B) is recorded as “further improved effectiveness of immunization”. In the assay on RMA T lymphoma (setting [2]), the RMA tumor growth entry is on record as “delayed tumor growth in mice” and the survival entry was “no significant improvement of survival”. Besides, the “rejection of RMA T lymphoma” value with RMA T lymphoma (combined treatment with caffeine and high (60%) oxygen atmosphere) is “significantly improved spontaneous rejection of RMA T lymphoma; also recorded: dramatically improving tumor rejection and survival; also recorded: significantly improved T cell-mediated rejection of RMA T lymphoma”. In addition, the survival of mice entry in the assay with RMA T lymphoma (low dose RMA 2×10^5 cells s.c., combined caffeine and 60% oxygen, about 30% of control mice survived) is “significantly improved survival of mice”.

Take oxygen: the B16 tumor growth result with B16 melanoma (60% oxygen alone, with tumor vaccine, n=8) is on record as “retarded”. In the assay on B16 melanoma (60% oxygen alone, with tumor vaccine, p=0.033 vs control), the survival of mice entry is “prolonged survival of mice”. For the same compound, the “TNP-specific IgM production” value with TNP-specific IgM (60% oxygen after vaccination versus normal oxygen, FIG. 4A) is on record as “produced more IgM than control immunized mice”. Besides, the tumor rejection entry in the assay with RMA T lymphoma (high dose RMA 3×10^5 cells s.c., 60% oxygen alone, n=8, most of the mice) is given as “did not reject the tumor; also recorded: couldn't reject the tumor”.
